Assay results reported in patent publication US8912209B2, “Rock inhibitors” (Amakem NV, priority 2010, dated 2014).
Read-outs that look alike come from different tables or passages of the source.

What was measured:
[1] = Stability assay in rabbit aqueous humor; type: in vitro ADME; conditions: 1 μM in rabbit aqueous humor, LC-MS/MS; read-out: t½ rabbits AH
Description: i) C.2.3. Stability Assay in Rabbit Aqueous Humor
Compounds are incubated at a concentration of 1 μM in rabbit aqueous humor (AH). Samples are taken at fixed time points and the remnant of compound is determined by LC-MS/MS after protein precipitation.

ROCK II = target: T1, ROCK II (Homo sapiens, UniProt O75116); assay: ROCK II kinase inhibition, Method 1 Proqinase setup (33P radioisotopic protein kinase assay); type: biochemical; conditions: 33P radioisotopic assay, 1 μM ATP, read-out: IC50 Meth. 1
T1 construct: purchased Proqinase
How it was run: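 33P radiometric assay with recombinant kinase (0.5 nM) and S6 peptide substrate in 60 mM HEPES-NaOH pH 7.5, Mg2+/Mn2+, 1 μM ATP, 1% DMSO; 80 min at 30 °C. Stopped with H3PO4, washed, counted; IC50 determined.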

[2] = Stability towards drug metabolizing enzymes in lung S9; type: in vitro ADME; conditions: human, lung S9 from smokers with NADPH, UDPGA, PAPS and GSH, read-out: t½ human lung S9
Description: i) C.2.2. Stability Towards Drug Metabolizing Enzymes in Lung S9
A 1 μM solution of the ROCK inhibitors is incubated with a reaction mixture containing lung S9 (from smokers) as well as the cofactors NADPH, UDPGA, PAPS and GSH. Samples are collected at 0, 15, 30 and 60 minutes post incubation. Negative control samples incubated with ROCK inhibitors and S9 fraction in the absence of cofactors are run in parallel. By using LC-MS/MS analysis, the percent of ROCK compounds remaining at each time point, the metabolic half-life of the ROCK compounds (expressed in minutes) and the metabolic half-life of the control compounds are determined.

[3] = Stability assay in rat plasma; type: in vitro ADME; conditions: 1 μM in rat plasma, LC-MS/MS; read-out: t½ rat plasma
Description: (§1) C.2.1. Stability Assay in Human and/or Rat Plasma
(§2) Compounds are incubated at a concentration of 1 μM in rat (mice or rabbit) or human plasma. Samples are taken at fixed time points and the remnant of compound is determined by LC-MS/MS after protein precipitation. Half life is expressed in minutes.

[4] = Stability assay in human plasma; type: in vitro ADME; conditions: 1 μM in human plasma, LC-MS/MS; read-out: t½ human plasma
Description: as §1, §2

ROCKα/ROCKII = target: T2, ROCKα/ROCKII (Homo sapiens, UniProt O75116); assay: ROCK inhibition, Method 2 fluorescence polarization (FP) assay, ROCK IMAP Kit; type: biochemical; conditions: 10 μM ATP, read-out: IC50 Meth. 2
T2 construct: purchased Upstate Biotechnology 14-451

Guinea pig trachea rings = assay: Smooth muscle relaxing activity in organ baths of guinea pig trachea (carbachol); conditions: Cavia porcellus; guinea pig trachea rings contracted with carbachol
Description: C.1.3. Smooth Muscle Relaxing Activity of Generated Soft ROCK Inhibitors In Vitro Using Organ Baths of Guinea Pig Trachea
Guinea pig trachea rings are prepared and incubated with a fixed concentration of the bronchoconstrictive agent carbachol. Then, increasing concentrations of the soft ROCK inhibitors are added and the contractive properties of the trachea measured for each of the compound concentrations. The study set-up allows the determination of an IC50, represented by the concentration of compound that induces a force equal to 50% of that observed for the vehicle-treated trachea.
In addition retention on the target is assessed using the above described organ baths of guinea pig trachea. In brief, upon induction of maximal relaxation with the ROCK inhibitors, trachea rings are thoroughly washed. Then, carbachol is added again and contractive properties are measured to determine whether the inhibitory activity of the ROCK inhibitors is prolonged upon the washout. A prolonged inhibitory activity after the washout is highly indicative for a prolonged retention of the compound at the lungs in vivo.

LPS-stimulated PBMC = assay: Cellular assay using LPS-stimulated PBMC, TNF release (ELISA), in the absence and presence of plasma; type: cell-based
Text: C.1.2. Activity Against ROCK in a Cellular Assay Using LPS-Stimulated PBMC in the Absence and Presence of Plasma
To ensure the stimulation of PBMC by LPS, the medium is enriched with LPS-binding protein (LBP) that will facilitate the delivery of LPS to the CD14 receptor and enhance the LPS-induced immune response. Cytokines secreted by activated PBMC include TNF, which is detected by means of a colorimetric ELISA. In the presence of an active compound, the release of TNF is inhibited in a concentration-dependent manner. Subsequently a control assay using the same set up in the presence of plasma is included.

T1 sequence (O75116 whole entry): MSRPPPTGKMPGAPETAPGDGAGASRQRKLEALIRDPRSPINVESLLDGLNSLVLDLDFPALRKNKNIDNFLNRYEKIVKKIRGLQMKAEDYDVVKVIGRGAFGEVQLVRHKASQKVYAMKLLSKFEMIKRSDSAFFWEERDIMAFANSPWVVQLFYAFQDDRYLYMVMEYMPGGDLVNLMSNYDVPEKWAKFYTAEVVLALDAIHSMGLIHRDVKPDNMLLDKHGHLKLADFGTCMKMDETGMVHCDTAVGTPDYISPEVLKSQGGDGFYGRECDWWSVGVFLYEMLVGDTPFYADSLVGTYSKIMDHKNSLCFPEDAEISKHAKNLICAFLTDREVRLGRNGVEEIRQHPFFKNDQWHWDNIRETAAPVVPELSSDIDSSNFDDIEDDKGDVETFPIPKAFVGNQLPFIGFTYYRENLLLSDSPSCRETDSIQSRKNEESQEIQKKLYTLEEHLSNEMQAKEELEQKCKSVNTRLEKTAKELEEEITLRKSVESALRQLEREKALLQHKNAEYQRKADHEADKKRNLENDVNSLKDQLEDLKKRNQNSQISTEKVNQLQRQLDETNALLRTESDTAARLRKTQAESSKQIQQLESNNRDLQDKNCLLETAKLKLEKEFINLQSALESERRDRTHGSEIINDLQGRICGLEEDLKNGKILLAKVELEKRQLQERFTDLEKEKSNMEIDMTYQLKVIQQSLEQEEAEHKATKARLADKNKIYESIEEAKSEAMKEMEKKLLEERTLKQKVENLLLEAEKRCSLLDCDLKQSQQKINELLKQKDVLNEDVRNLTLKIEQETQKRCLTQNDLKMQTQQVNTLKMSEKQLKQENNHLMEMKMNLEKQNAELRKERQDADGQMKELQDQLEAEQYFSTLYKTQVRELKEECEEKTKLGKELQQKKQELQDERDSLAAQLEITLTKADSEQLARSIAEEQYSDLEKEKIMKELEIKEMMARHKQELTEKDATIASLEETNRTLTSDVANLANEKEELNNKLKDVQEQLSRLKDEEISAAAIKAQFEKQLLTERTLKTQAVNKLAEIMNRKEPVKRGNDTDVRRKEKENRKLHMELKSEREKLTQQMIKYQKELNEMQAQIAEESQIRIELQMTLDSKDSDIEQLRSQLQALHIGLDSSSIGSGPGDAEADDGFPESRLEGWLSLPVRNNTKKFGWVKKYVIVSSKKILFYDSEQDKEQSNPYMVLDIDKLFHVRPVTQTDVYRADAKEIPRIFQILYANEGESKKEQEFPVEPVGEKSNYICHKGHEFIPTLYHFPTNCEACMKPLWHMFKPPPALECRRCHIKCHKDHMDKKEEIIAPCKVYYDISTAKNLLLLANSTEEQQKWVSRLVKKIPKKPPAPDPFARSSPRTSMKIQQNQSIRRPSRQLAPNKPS
T2 sequence (O75116 whole entry): as above

half-life at 1 μM [1] | IC50 (ROCK II) | half-life at 1 μM [2] | half-life at 1 μM [3] | half-life at 1 μM [4] | IC50 (ROCKα/ROCKII) | IC50 (Guinea pig trachea rings) | SMILES | IC50 (LPS-stimulated PBMC; in the presence of plasma, read-out: IC50 in the presence of plasma) | IC50 (LPS-stimulated PBMC; without plasma, read-out: IC50 (assay without plasma))
> 60 min | < 100 nM |  |  |  |  |  | CCCOC(=O)c1cc(-c2cc(C(=O)Nc3ccncc3)ccc2C(C)N)c[nH]1 (stereo not shown) [Compound 169, 4-[2-(1-Amino-ethyl)-5-(pyridin-4-ylcarbamoyl)-phenyl]-1H-pyrrole-2-carboxylic acid propyl ester] |  | 
 | 100 to 1000 nM | > 60 min | 4.5 min | 9.8 min | < 100 nM |  | CC(N)c1ccc(C(=O)Nc2ccncc2F)cc1-c1cccc(C(=O)OCC2CCCCO2)c1 (stereo not shown) [Compound 47, 2′-(1-Amino-ethyl)-5′-(3-fluoro-pyridin-4-ylcarbamoyl)-biphenyl-3-carboxylic acid tetrahydro-pyran-2-ylmethyl ester] |  | 
> 60 min | 100 to 1000 nM | 53 min | 5.8 min | 1.9 min | < 100 nM | 500 nM | CC(N)c1ccc(C(=O)Nc2ccncc2F)cc1-c1cccc(C(=O)OCC2CCCO2)c1 (stereo not shown) [Compound 46, 2′-(1-Amino-ethyl)-5′-(3-fluoro-pyridin-4-ylcarbamoyl)-biphenyl-3-carboxylic acid tetrahydro-furan-2-ylmethyl ester] | > 10000 nM | 120 nM
